According to patent publication US10703747B2, “Benzothiophene-based selective mixed estrogen receptor downregulators” (The Board of Trustees of the University of Illnois, priority 2016, dated 2020):

Target: T1, estrogen receptor (Homo sapiens, UniProt P03372)
T1 sequence (P03372 1-595): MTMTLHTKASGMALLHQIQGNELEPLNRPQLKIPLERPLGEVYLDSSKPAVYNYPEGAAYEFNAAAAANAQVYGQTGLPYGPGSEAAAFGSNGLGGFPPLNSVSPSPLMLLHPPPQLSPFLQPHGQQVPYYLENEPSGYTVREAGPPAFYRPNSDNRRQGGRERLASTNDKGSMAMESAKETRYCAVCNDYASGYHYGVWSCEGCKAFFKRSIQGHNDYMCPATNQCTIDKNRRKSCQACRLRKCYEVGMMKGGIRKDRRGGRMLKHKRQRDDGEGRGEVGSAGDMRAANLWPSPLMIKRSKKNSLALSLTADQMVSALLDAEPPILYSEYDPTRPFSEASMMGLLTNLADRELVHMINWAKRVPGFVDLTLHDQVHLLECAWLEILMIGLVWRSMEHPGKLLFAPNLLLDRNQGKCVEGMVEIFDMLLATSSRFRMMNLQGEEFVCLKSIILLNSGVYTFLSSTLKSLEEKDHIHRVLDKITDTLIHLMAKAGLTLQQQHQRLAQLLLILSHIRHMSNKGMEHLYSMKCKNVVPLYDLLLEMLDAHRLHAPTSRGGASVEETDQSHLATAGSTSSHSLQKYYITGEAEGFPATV
Assay: Western blot, estrogen receptor downregulation in T47D:neo cells
Type: cell-based
Set-up: Whole-cell extracts of cultured cells were prepared in lysis buffer; endogenous in cells; host or cells: T47D:neo
Settings: 24 hours, 1 nM to 1 uM
Protocol: (§1) Whole-cell extracts of cultured cells were prepared in lysis buffer (200 mmol/L Tris, 1% Triton X-100, 5 mmol/L EDTA) with protease and phosphatase inhibitor cocktails (1:50, both from Sigma-Aldrich) after scraping from the culture plates. Protein concentration was measured using the Bradford method (Bio-Rad). Proteins were separated under denaturing conditions and blotted onto nitrocellulose membrane (Bio-Rad) using a wet transfer system (Bio-Rad). Images of blots were acquired on a Bio-Rad ChemiDoc System following incubation with SuperSignal West Dura luminol solution (Thermo Fisher Scientific).
(§2) Fulvestrant at 1 uM concentration was assayed as a positive control.

| estrogen receptor downregulation (western blot) | Compound |
| --- | --- |
| estrogen receptor downregulation | O=C(O)/C=C/c1ccc(-c2c(C(=O)c3ccc(O)cc3)sc3cc(O)ccc23)cc1 [Compound 1, (E)-3-(4-(6-hydroxy-2-(4-hydroxybenzoyl)benzo[b]thiophen-3-yl)phenyl)acrylic acid] |

Target: T1, estrogen receptor
Assay: Western blot, estrogen receptor downregulation in MCF-7:5C cells
Type: cell-based
Set-up: Whole-cell extracts of cultured cells were prepared in lysis buffer; endogenous in cells
Settings: 24 hours, 1 nM to 1 uM
Protocol: as §1, §2

| estrogen receptor downregulation (western blot) | Compound |
| --- | --- |
| estrogen receptor downregulation | O=C(O)/C=C/c1ccc(-c2c(C(=O)c3ccc(O)cc3)sc3cc(O)ccc23)cc1 [Compound 1, (E)-3-(4-(6-hydroxy-2-(4-hydroxybenzoyl)benzo[b]thiophen-3-yl)phenyl)acrylic acid] |

System: MCF7:5C (Tamoxifen Resistant) cells
Assay: Cell viability of MCF7:5C (tamoxifen resistant), DNA content growth inhibition
Type: cell-based
Settings: 144 h, Table 1, data normalized to 1 uM fulvestrant, day 6, read-out: MCF-5C growth inhibition IC50
Protocol: Assays Cell Viability of MCF7:5C (Tamoxifen Resistant)
The DNA content of the cells was determined as previously described using a Fluorescent DNA Quantitation kit (cat. No. 170-2480; Bio-Rad Laboratories, Hercules, Calif.). Briefly, five thousand cells were plated per well in 96-well plates, and treatment with indicated concentrations of compounds was started at the same time in each well. On day 6, the cells in the plates were lysed and frozen at −80° C. To measure the total DNA in each well, the plates were allowed to warm to room temperature, incubated with Hoechst dye, and mixed well. The fluorescence was measured using a Synergy H4 Hybrid Multi-Mode Microplate Reader. For each analysis, six replicate wells were used and at least three independent experiments were performed.
FIG. 1 is a graph of the efficacy of Compound 1 against tamoxifen-resistant MCF-7:5 cells normalized to 1 uM fulvestrant. The y-axis is cell survival as a percent of the control and the x-axis is the concentration of the compound measured in nanomolar units.

| Compound | IC50 [nM] |
| --- | --- |
| Cc1ccccc1C(=O)c1sc2cc(O)ccc2c1-c1ccc(/C=C/C(=O)O)cc1 [Compound 6, (E)-3-(4-(6-hydroxy-2-(2-methylbenzoyl)benzo[b]thiophen-3-yl)phenyl)acrylic acid] | > 200 |
| O=C(O)/C=C/Oc1ccc(-c2c(C(=O)c3ccc(O)cc3)sc3cc(O)ccc23)cc1 [Compound 2, (E)-3-(4-(6-hydroxy-2-(4-hydroxybenzoyl)benzo[b]thiophen-3-yl)phenoxy)acrylic acid] | < 10 |
| O=C(O)/C=C/c1ccc(-c2c(C(=O)c3ccccc3C(F)(F)F)sc3cc(O)ccc23)cc1 [Compound 5, (E)-3-(4-(6-hydroxy-2-(2-(trifluoromethyl)benzoyl)benzo[b]thiophen-3-yl)phenyl)acrylic acid] | > 200 |
| Cc1cccc(C)c1C(=O)c1sc2cc(O)ccc2c1-c1ccc(/C=C/C(=O)O)cc1 [Compound 10, (E)-3-(4-(2-(2,6-dimethylbenzoyl)-6-hydroxybenzo[b]thiophen-3-yl)phenyl)acrylic acid] | > 200 |
| Cc1cc(F)ccc1C(=O)c1sc2cc(O)ccc2c1-c1ccc(/C=C/C(=O)O)cc1 [Compound 9, (E)-3-(4-(2-(4-fluoro-2-methylbenzoyl)-6-hydroxybenzo[b]thiophen-3-yl)phenyl)acrylic acid] | > 200 |
| O=C(O)/C=C/c1ccc(-c2c(C(=O)c3ccc(O)cc3)sc3cc(O)ccc23)cc1 [Compound 1, (E)-3-(4-(6-hydroxy-2-(4-hydroxybenzoyl)benzo[b]thiophen-3-yl)phenyl)acrylic acid] | < 100 |
| Cc1cc(F)cc(C)c1C(=O)c1sc2cc(O)ccc2c1-c1ccc(/C=C/C(=O)O)cc1 [Compound 8, (E)-3-(4-(2-(4-fluoro-2,6-dimethylbenzoyl)-6-hydroxybenzo[b]thiophen-3-yl)phenyl)acrylic acid] | > 200 |
| O=C(O)/C=C/c1ccc(-c2c(C(=O)c3ccccc3F)sc3cc(O)ccc23)cc1 [Compound 3, (E)-3-(4-(2-(2-fluorobenzoyl)-6-hydroxybenzo[b]thiophen-3-yl)phenyl)acrylic acid] | > 200 |
| O=C(O)/C=C/c1ccc(-c2c(C(=O)c3ccccc3Cl)sc3cc(O)ccc23)cc1 [Compound 4, (E)-3-(4-(2-(2-chlorobenzoyl)-6-hydroxybenzo[b]thiophen-3-yl)phenyl)acrylic acid] | > 200 |
| Cc1cc(C)cc(C(=O)c2sc3cc(O)ccc3c2-c2ccc(/C=C/C(=O)O)cc2)c1 [Compound 11, (E)-3-(4-(2-(3,5-dimethylbenzoyl)-6-hydroxybenzo[b]thiophen-3-yl)phenyl)acrylic acid] | > 200 |
| Cc1ccc(F)cc1C(=O)c1sc2cc(O)ccc2c1-c1ccc(/C=C/C(=O)O)cc1 [Compound 7, (E)-3-(4-(2-(5-fluoro-2-methylbenzoyl)-6-hydroxybenzo[b]thiophen-3-yl)phenyl)acrylic acid] | > 200 |

Same assay, conditions: 144 h, Table 2, data normalized to 1 uM fulvestrant, day 6, read-out: MCF-5C growth inhibition IC50

| Compound | IC50 [nM] |
| --- | --- |
| Cc1cc(O)cc(C)c1C(=O)c1sc2cc(O)ccc2c1-c1ccc(/C=C/C(=O)O)cc1 [Compound 15, (E)-3-(4-(6-hydroxy-2-(4-hydroxy-2,6-dimethylbenzoyl)benzo[b]thiophen-3-yl)phenyl)acrylic acid] | > 200 |
| O=C(O)/C=C/c1ccc(-c2c(C(=O)C3CCCCC3)sc3cc(O)ccc23)cc1 [Compound 12, (E)-3-(4-(2-(cyclohexanecarbonyl)-6-hydroxybenzo[b]thiophen-3-yl)phenyl)acrylic acid] | < 200 |
| Cc1cc(O)ccc1C(=O)c1sc2cc(O)ccc2c1-c1ccc(/C=C/C(=O)O)cc1 [Compound 14, (E)-3-(4-(6-hydroxy-2-(4-hydroxy-2-methylbenzoyl)benzo[b]thiophen-3-yl)phenyl)acrylic acid] | > 200 |
| Cc1cc(OC(F)(F)F)ccc1C(=O)c1sc2cc(O)ccc2c1-c1ccc(/C=C/C(=O)O)cc1 [Compound 13, (E)-3-(4-(6-hydroxy-2-(2-methyl-4-(trifluoromethoxy)benzoyl)benzo[b]thiophen-3-yl)phenyl)acrylic acid] | > 200 |
